# How the values were obtained:
# [1] = Plasma pharmacokinetics of lurbinectedin metabolites M1 and M4 (metabolite/parent ratio) with and without itraconazole
# Description: The study consisted of two parts. In Part A, three patients were sequentially enrolled to receive Sequence 1 (TR: Test–Reference) consisting of itraconazole (200 mg […]; once-daily for 12 days) co-administered with lurbinectedin (0.8 mg/m^2, 1 h, IV infusion q3wk) (Cycle 1), followed by two consecutive cycles (Cycles 2 and 3) of lurbinectedin alone (3.2 mg/m^2, 1 h, IV infusion q3wk), with the third cycle being optional. In Part B, patients were randomized (in a ratio 1:1, using sequence a block randomization implemented with Medidata Rave Randomization and Trial Supply Management [RTSM]) to receive either Sequence 1 (TR: Test–Reference), but with lurbinectedin 0.9 mg/m^2, 1 h, IV when co-administered with itraconazole, or Sequence 2 (RT: Reference–Test) of lurbinectedin alone (Cycle 1), followed by itraconazole and lurbinectedin co-administration (Cycle 2), with lurbinectedin alone (optional Cycle 3) (see Figure 2 above).
# The itraconazole dose (200 mg) was selected based on the published literature for the design of clinical drug–drug interaction studies with itraconazole. In the co-administration cycles, itraconazole was administered as 200 mg (2 × 100 mg capsules) once-daily doses in the morning after breakfast for 12 consecutive days, self-administered at home starting from […] (i.e., four days before lurbinectedin infusion) to Day 8 (i.e., seven days after lurbinectedin infusion), following recommendations from the Summary of Product Characteristics. On Day 1 (day of lurbinectedin infusion), itraconazole was given immediately prior to the start of the lurbinectedin infusion. In fact, itraconazole had to be administered after collecting the first itraconazole PK sample and before the start of lurbinectedin infusion (−15 min to −1 min). In case of lurbinectedin delay (≤2 days), itraconazole could be administered for a maximum of 14 days (Figure 6). In Sequence 1 (TR), itraconazole for self-administration and the patient’s diary were given to the patient on Day −5 with a −2/+1 daytime window (i.e., from Day −7 to Day −4). In Sequence 2 (RT), itraconazole and the patient’s diary were given to the patient on Day −5 of Cycle 2 with a −2/+1 daytime window (i.e., from Day 15 of Cycle 1 to Day −4 of Cycle 2).
# The impact of itraconazole on the lurbinectedin PK profile compared with that of lurbinectedin alone was evaluated using the primary study PK endpoints: Cmax and AUC0–∞ of total plasma lurbinectedin. Other secondary PK endpoints included AUC0–t, total plasma CL, t1/2, and the volume of distribution at steady state (Vss). The following unbound parameters were also estimated: AUCu,0–∞, AUCu,0–t, Cu,max, CLu, Vss,u, and t1/2,u. Plasma PK parameters were calculated with a standard non–compartmental analysis approach using Phoenix® WinNonlin® v6.4 (Certara USA, Inc., Princeton, NJ, USA).
# Serial peripheral venous blood samples for the lurbinectedin PK analysis (and its metabolites M1 and M4) were collected in Cycle 1 and Cycle 2 (Sequences 1 and 2), with a schedule of thirteen samples in all patients as follows: at pre-dose, 5 min prior to the end of the lurbinectedin infusion, and at 0.5, 1, 2, 4, 6, 24, 48, 96, 168, 241, and 337 h post-dose on Days 1, 2, 3, 5, 8, 11, and 15. Only in Part B (Sequence 2) was a blood sampling test at 505 h post-lurbinectedin dosing to be collected before the lurbinectedin infusion started on Day 1 of Cycle 3, if detectable lurbinectedin concentrations were present in the pre-infusion sample in Cycle 2 of Part A. Blood samples for the PK analysis of itraconazole (and its active metabolite, hydroxy-itraconazole) were collected in cycles with itraconazole co-administration (i.e., Cycle 1 of Part A and B [Sequence 1] and Cycle 2 of Part B [Sequence 2]) at pre-dose and at 1, 2, 4, 24, and 168 h post-itraconazole dosing on Days 1, 2, and 8.
# [2] = cited from earlier work
# [3] = co-administration with itraconazole compared with lurbinectedin alone
# [4] = treatment LRB alone (R), dose-normalized, n = 8
# [5] = lurbinectedin + itraconazole divided by lurbinectedin alone
Compound,"Conversion of lurbinectedin to the metabolite [1, 3]","Metabolite/parent ratio (MPR) of AUC0–t, geometric mean (CV%) ([1]; human, in vivo)","Metabolite/parent ratio (MPR) of Cmax, geometric mean (CV%) ([1]; human, in vivo)","Metabolite/parent ratio (MPR) of AUC0–t, geometric mean (CV%) [1, 4]","Metabolite/parent ratio (MPR) of Cmax, geometric mean (CV%) [1, 4]","Reduction of the conversion of lurbinectedin to the metabolite [1, 3]","MPR of AUC0–t, least-squares geometric mean ratio [1, 5]","MPR of Cmax, least-squares geometric mean ratio [1, 5]","Mild and transient liver enzymes elevations, patients ([2]; chronic dosing)","Risk of QTc prolongation in the electrocardiogram ([2]; especially at ≤200 mg once a day, in vitro data and clinical experience)"
"1′,3′–dihydroxy–lurbinectedin [M1]",almost completely inhibited,0.74 (NA) µg·h/L/mg,0.38 (NA) µg/L/mg,0.48 (360.01) µg·h/L/mg,0.29 (135.88) µg/L/mg,,,,,
"COc1ccc2[nH]c3c(c2c1)CCN[C@]31CS[C@@H]2c3c(OC(C)=O)c(C)c4c(c3[C@H](COC1=O)N1[C@@H]2[C@@H]2N[C@@H](Cc3cc(C)c(OC)c(O)c32)[C@@H]1O)OCO4 [M4, N–desmethyl–lurbinectedin]",,1.29 (209.58) µg·h/L/mg,0.61 (47.57) µg/L/mg,1.45 (135.58) µg·h/L/mg,0.49 (60.3) µg/L/mg,69%,31.53%,92.47%,,
CCC(C)n1ncn(-c2ccc(N3CCN(c4ccc(OCC5COC(Cn6cncn6)(c6ccc(Cl)cc6Cl)O5)cc4)CC3)cc2)c1=O (centres unmarked) [itraconazole],,,,,,,,,< 5%,low

# Reference: article PMC11050816, “Pharmacokinetics and Safety of Lurbinectedin Administrated with Itraconazole in Cancer Patients: A Drug–Drug Interaction Study” (Marine Drugs, 2024)
